Here are results for seven compounds from article PMC2453633 (Diabetes, 2008).

Peptide text beside a SMILES is read from it.

As usually defined, the IC50 is the concentration that gives 50% inhibition. Low readings indicate greater potency, high ones weaker potency.

For one experiment, the target named is T1, I-A^g7 (Mus musculus, UniProt P04228+Q31135).
T1 sequence (P04228 24-256): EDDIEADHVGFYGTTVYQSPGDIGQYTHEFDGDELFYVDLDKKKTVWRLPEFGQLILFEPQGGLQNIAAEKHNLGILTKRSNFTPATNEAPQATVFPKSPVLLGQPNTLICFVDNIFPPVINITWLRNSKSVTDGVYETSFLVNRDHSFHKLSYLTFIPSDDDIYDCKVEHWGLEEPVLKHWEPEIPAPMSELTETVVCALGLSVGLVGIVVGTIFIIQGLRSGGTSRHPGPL
T1 sequence (Q31135 1-263): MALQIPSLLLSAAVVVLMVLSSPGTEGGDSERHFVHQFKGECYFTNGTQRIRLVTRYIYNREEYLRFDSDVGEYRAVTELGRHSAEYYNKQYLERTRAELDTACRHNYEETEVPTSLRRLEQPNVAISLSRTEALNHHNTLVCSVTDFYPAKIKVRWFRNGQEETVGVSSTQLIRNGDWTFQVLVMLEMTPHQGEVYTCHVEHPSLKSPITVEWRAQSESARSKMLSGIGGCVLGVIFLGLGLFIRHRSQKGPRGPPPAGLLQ
Format: binding.

For a further experiment, the target named is I-A^k (Mus musculus, UniProt P01910+P06343). Kind of experiment: Peptide-binding assay on soluble I-A^k.
Another experiment relates to ACP T-cell hybridomas. The experiment in a line: T-cell hybridoma reactivity with nonamers spanning PI-1. The settings on record: eight ACP T-cell hybridomas tested; all negative. It counts as cell-based, mouse.

In turn, `CC(C)[C@H](NC(=O)[C@H](CCCCN)NC(=O)[C@H](CCCCN)NC(=O)CN)C(=O)N[C@@H](C)C(=O)N[C@H](C(=O)N[C@H](C(=O)N[C@H](C(=O)N[C@@H](Cc1c[nH]cn1)C(=O)N[C@@H](C)C(=O)NCC(=O)N[C@@H](Cc1ccc(O)cc1)C(=O)NCC(=O)O)C(C)C)[C@@H](C)O)[C@@H](C)O` [MIME, reference compound] (H-GKKVATTVHAGYG-OH) yielded an IC50 on I-A^g7 of 1 µM.

Take `CC(C)C[C@H](NC(=O)[C@H](C)NC(=O)[C@H](CC(C)C)NC(=O)[C@@H](NC(=O)[C@H](CCC(N)=O)NC(=O)[C@H](CC(C)C)NC(=O)[C@H](CC(=O)O)NC(=O)CNC(=O)[C@@H]1CCCN1C(=O)[C@@H](N)CO)[C@@H](C)O)C(=O)N[C@@H](CCC(=O)O)C(=O)N[C@H](C(=O)N[C@@H](C)C(=O)N[C@@H](CCCNC(=N)N)C(=O)N[C@@H](CCC(N)=O)C(=O)N[C@@H](CCCCN)C(=O)N[C@@H](CCCNC(=N)N)C(=O)NCC(=O)O)C(C)C` [PI-1(47–64)] (H-SPGDLQTLALEVARQKRG-OH): the IC50 against I-A^g7 was 98.9 µM; on I-A^k, 4.8 µM.

In turn, `CC(C)C[C@H](NC(=O)[C@H](C)NC(=O)[C@H](CC(C)C)NC(=O)[C@@H](NC(=O)[C@H](CCC(N)=O)NC(=O)[C@H](CC(C)C)NC(=O)[C@H](CC(=O)O)NC(=O)CN)[C@@H](C)O)C(=O)N[C@@H](CCC(=O)O)C(=O)N[C@H](C(=O)N[C@@H](C)C(=O)N[C@@H](CCCNC(=N)N)C(=O)N[C@@H](CCC(N)=O)C(=O)O)C(C)C` [PI-1(49–61)] (H-GDLQTLALEVARQ-OH) showed an IC50 at I-A^g7 of 20 µM.

For the compound `CC(C)C[C@H](NC(=O)[C@H](C)NC(=O)[C@H](CC(C)C)NC(=O)[C@@H](NC(=O)[C@H](CCC(N)=O)NC(=O)[C@H](CC(C)C)NC(=O)[C@H](CC(=O)O)NC(=O)CNC(=O)[C@H](C)NC(=O)CN)[C@@H](C)O)C(=O)N[C@@H](CCC(=O)O)C(=O)N[C@H](C(=O)N[C@@H](C)C(=O)N[C@@H](CCC(N)=O)C(=O)N[C@@H](CCC(N)=O)C(=O)N[C@@H](CCCCN)C(=O)N[C@@H](CCCNC(=N)N)C(=O)NCC(=O)O)C(C)C` [PI-2(49–66)] (H-GAGDLQTLALEVAQQKRG-OH), the IC50 on I-A^g7 worked out at 136 µM; at I-A^k it was 2.1 µM.

With LQTLALEVA, the “T-cells reactive with nonamer (of T-cells tested)” value (shortened to “T-cells reactive with nonamer”) in the experiment on ACP T-cell hybridomas is 0 of 8.

In the case of QTLALEVAR, the “T-cells reactive with nonamer” value in the experiment on ACP T-cell hybridomas is recorded as 0 of 8.

TLALEVARQ: the “T-cells reactive with nonamer” value in the experiment on ACP T-cell hybridomas is on record as 0 of 8.
